Results published in patent publication US20140121240A1, “NOVEL PHARMACEUTICAL COMPOSITION” (MARUHO CO., LTD., priority 2011, published 2014).
Marks after values point to notes of the source that are not given here.

Assays:
[1] = system: histamine-induced scratching behavior; test: Antipruritic effect in histamine-induced scratching model (Experiment 2); assay type: in vivo, mouse; details: for Antipruritic activity (ratio of inhibition rate on scratching behavior to that of Compound A): 3% w/v in acetone 50 μL topical 1 h before histamine 300 nmol/50 μL, ICR female mice, counts for 30 minutes; for antipruritic effect in histamine-induced scratching model, result in words: 3% w/v topical, histamine 300 nmol/50 μL
Method: [Antipruritic Effect of Test Compound in Histamine-Induced Scratching Model]
After topical administration of a 3% w/v solution of a test compound or a reference compound as described in the following Table 6 in acetone (50 μL) or a vehicle (acetone; 50 μL) onto right dorsal neck of ICR female mice similarly pre-treated as described in Experiment 1, these animals were placed into a testing apparatus (MicroAct). After one hour of the administration of said compound solution or vehicle, a solution (50 μL) of histamine in saline (300 nmol/50 μL) or saline (50 μL) was intradermally administered to right dorsal neck of each mouse. Immediately after the administration, scratching behavior (counts of scratching) was measured for 30 minutes by MicroAct.
Inhibition rate on scratching behavior of each test compound was evaluated in terms of the following formula based on the counts of scratching in the test group in which each test compound solution was administered followed by administration of a histamine solution in saline (counts of scratching in compound-treated group), and the counts of scratching in the test group in which a vehicle (acetone) was administered followed by administration of a histamine solution in saline (counts of scratching in vehicle-treated group).
(§1) Ratio of inhibition rate on scratching behavior of each test compound to that of Compound A was calculated as antipruritic activity (%). For reference, PDE4 inhibitory activity of each compound (IC50) which was measured by a conventional manner is also shown in such Table.

PDE4 = PDE4 inhibitory activity measured by a conventional manner; assay type: biochemical
Method: as §1

[2] = system: oxazolone-induced inflammatory reactions of right ear auricle; test: Chronic oxazolone-induced dermatitis model: ear auricle thickness (Experiment 4); assay type: in vivo, mouse; details: Compound A 1%, Tacrolimus 0.1%, Dexamethasone 0.01% w/v in 0.25% oxazolone
Method: (§2) [Antipruritic Effect of Test Compound in Chronic Oxazolone-Induced Dermatitis Model]
(§3) A magnet for measurement was implanted into an instep part of right hindlimb of BALB/c male mouse (fed for one week from five-week old; Charles River Laboratories, Japan Inc.) under anesthesia, and on the same day, sensitization was carried out by topically administering 0.5% w/v solution (10 μL) of oxazolone in acetone respectively onto the both sides of right ear auricle of the animal (sensitization day). On each point of the 7th, 9th, 11th, 14th and 16th day reckoned from the day after the sensitization (1st day), each mouse was challenged by topical administration of a 10 μL solution of test compound [acetone (vehicle-treated group), 0.25% w/v solution of oxazolone in acetone (oxazolone-treated group), or a test compound solubilized in 0.25% w/v oxazolone solution in acetone (test compound-treated group)] onto the both sides of right ear auricle of the animal to produce inflammatory reactions. Immediately after the administration, scratching behavior (counts of scratching) was measured for two hours by MicroAct. Thickness of right ear auricle of each mouse was measured by a thickness gauge before and 24 hours after the topical administration of each test compound solution. The percentage described in the Table means “% w/v”.

[3] = system: oxazolone-induced scratching behavior; test: Chronic oxazolone-induced dermatitis model: scratching behavior (Experiment 4); assay type: in vivo, mouse; details: Compound A 1%, Tacrolimus 0.1%, Dexamethasone 0.01% w/v in 0.25% oxazolone
Method: as §2, §3

[4] = system: histamine-induced scratching behavior; test: Antipruritic activity in histamine-induced scratching model, dose response (Experiment 3 (1)); assay type: in vivo, mouse
Method: (1) [Antipruritic Activity of Test Compound in Histamine-Induced Scratching Model]
After topical administration of a solution (50 μL) of test compound (0.3 to 3% w/v solution of Compound A in acetone, or 0.03 to 0.3% w/v solution of cipamfylline in acetone), or a vehicle (acetone; 50 μL) onto right dorsal neck of ICR female mice similarly pre-treated as described in Experiment 1, these animals were placed into a testing apparatus (MicroAct). After one hour of the administration of said test compound solution or vehicle, a solution (50 μL) of histamine in saline (300 nmol/50 μL) or saline (50 μL; control group) was intradermally administered to right dorsal neck of each mouse. Immediately after the administration, scratching behavior (counts of scratching) was measured for 30 minutes by the testing apparatus (MicroAct).

[5] = system: spontaneous locomotor activity; test: Effect on spontaneous locomotor activity (Experiment 3 (2)); assay type: in vivo, mouse; details: for Spontaneous locomotor activity (Mean): measured from 1 h after administration
Method: (2) [Effect of Test Compound on Spontaneous Locomotor Activity] The same solution (50 μL) of test compound or a vehicle (50 μL) as described in the above-mentioned (1) was administered onto right dorsal neck of ICR female mice similarly pre-treated as described in Experiment 1. After one hour of the administration of the test compound solution or vehicle, these animals were placed into an apparatus for measuring spontaneous locomotor activity (SCANET, Melquest Ltd.), and their locomotor activity was measured for 30 minutes.

[6] = sensitization day, BALB/c male mouse

## COc1cc2cc(CO)c(CO)c(-c3ccnc(-n4c(=O)cc(OC)c5ccccc54)c3)c2cc1OC [Compound C]
[1]
  Antipruritic activity (ratio of inhibition rate on scratching behavior to that of Compound A): 116%
  antipruritic effect in histamine-induced scratching model, result in words: remarkable antipruritic effect
PDE4
  IC50: 2 nM

## C=CC[C@@H]1/C=C(\C)C[C@H](C)C[C@H](OC)[C@H]2O[C@@](O)(C(=O)C(=O)N3CCCC[C@H]3C(=O)O[C@H](/C(C)=C/[C@@H]3CC[C@@H](O)[C@H](OC)C3)[C@H](C)[C@@H](O)CC1=O)[C@H](C)C[C@@H]2OC [Tacrolimus]
[2]; 7th day
  Ear auricle thickness (Mean): 0.35 mm
[2]; 8th day
  Ear auricle thickness (Mean): 0.58 mm
[2]; 9th day
  Ear auricle thickness (Mean): 0.41** mm
[2]; 10th day
  Ear auricle thickness (Mean): 0.49** mm
[2]; 11th day
  Ear auricle thickness (Mean): 0.49** mm
[2]; 12th day
  Ear auricle thickness (Mean): 0.57** mm
[2]; 14th day
  Ear auricle thickness (Mean): 0.52** mm
[2]; 15th day
  Ear auricle thickness (Mean): 0.73** mm
[2]; 16th day
  Ear auricle thickness (Mean): 0.65** mm
[2]; 17th day
  Ear auricle thickness (Mean): 0.71** mm
[2]; [6]
  Ear auricle thickness (Mean): 0.27 mm
[3]; 7th day, BALB/c male mouse
  Counts of scratching (Mean ± standard error): 1130 ± 135 (**) beats/2 hr.
[3]; 9th day
  Counts of scratching (Mean ± standard error): 1655 ± 231 beats/2 hr.
[3]; 11th day
  Counts of scratching (Mean ± standard error): 990 ± 148 beats/2 hr.
[3]; 14th day
  Counts of scratching (Mean ± standard error): 1023 ± 148 (**) beats/2 hr.
[3]; 16th day
  Counts of scratching (Mean ± standard error): 2164 ± 324 beats/2 hr.

## COc1cc2cc(CO)c(CO)c(-c3ccnc(-n4c(=O)cc(O)c5ccccc54)c3)c2cc1OC [Compound D]
[1]
  Antipruritic activity (ratio of inhibition rate on scratching behavior to that of Compound A): 80%
  antipruritic effect in histamine-induced scratching model, result in words: remarkable antipruritic effect
PDE4
  IC50: 2 nM

## C[C@@H]1C[C@H]2[C@@H]3CCC4=CC(=O)C=C[C@]4(C)[C@@]3(F)[C@@H](O)C[C@]2(C)[C@@]1(O)C(=O)CO [Dexamethasone]
[2]; 7th day
  Ear auricle thickness (Mean): 0.35 mm
[2]; 8th day
  Ear auricle thickness (Mean): 0.46** mm
[2]; 9th day
  Ear auricle thickness (Mean): 0.40** mm
[2]; 10th day
  Ear auricle thickness (Mean): 0.45** mm
[2]; 11th day
  Ear auricle thickness (Mean): 0.43** mm
[2]; 12th day
  Ear auricle thickness (Mean): 0.54** mm
[2]; 14th day
  Ear auricle thickness (Mean): 0.49** mm
[2]; 15th day
  Ear auricle thickness (Mean): 0.55** mm
[2]; 16th day
  Ear auricle thickness (Mean): 0.54** mm
[2]; 17th day
  Ear auricle thickness (Mean): 0.64** mm
[2]; [6]
  Ear auricle thickness (Mean): 0.27 mm
[3]; 7th day, BALB/c male mouse
  Counts of scratching (Mean ± standard error): 1663 ± 144 (*) beats/2 hr.
[3]; 9th day
  Counts of scratching (Mean ± standard error): 1845 ± 442 beats/2 hr.
[3]; 11th day
  Counts of scratching (Mean ± standard error): 1274 ± 296 beats/2 hr.
[3]; 14th day
  Counts of scratching (Mean ± standard error): 1791 ± 354 beats/2 hr.
[3]; 16th day
  Counts of scratching (Mean ± standard error): 2211 ± 430 beats/2 hr.

## Nc1nc2c([nH]1)c(=O)n(CC1CC1)c(=O)n2CC1CC1 [Cipamfylline, cipamfylline]
[4]; 0.03% w/v in acetone 50 μL topical 1 h before histamine 300 nmol/50 μL
  Counts of scratching (Mean): 579 beats/30 min.
[4]; 0.1% w/v in acetone 50 μL topical 1 h before histamine 300 nmol/50 μL
  Counts of scratching (Mean): 369 beats/30 min.
[4]; 0.3% w/v in acetone 50 μL topical 1 h before histamine 300 nmol/50 μL
  Counts of scratching (Mean): 130 beats/30 min.
[5]; 0.03% w/v in acetone 50 μL topical
  Spontaneous locomotor activity (Mean): 6760 counts/30 min.
[5]; 0.1% w/v in acetone 50 μL topical
  Spontaneous locomotor activity (Mean): 5308 counts/30 min.
[5]; 0.3% w/v in acetone 50 μL topical
  Spontaneous locomotor activity (Mean): 4924 counts/30 min.
[5]; Compound A 3% w/v, cipamfylline 0.3% w/v
  spontaneous locomotor activity lowering effect at a dose producing antipruritic effect, result in words: showed a significant spontaneous locomotor activity lowering effect

## COc1cc2cc(CO)c(CO)c(-c3ccnc(-n4ccc5c(CCc6cccnc6)cccc5c4=O)c3)c2cc1OC [Reference compound 3]
[1]
  Antipruritic activity (ratio of inhibition rate on scratching behavior to that of Compound A): −36%
  antipruritic effect in histamine-induced scratching model, result in words: very weak or was not observed
PDE4
  IC50: 0.1 nM

## COc1cc2cc(CO)c(CO)c(-c3ccnc(-n4ncc5ccccc5c4=O)c3)c2cc1OC [Compound B]
[1]
  Antipruritic activity (ratio of inhibition rate on scratching behavior to that of Compound A): 154%
  antipruritic effect in histamine-induced scratching model, result in words: remarkable antipruritic effect
PDE4
  IC50: 1 nM
